# Results as given in paper PMC7413254 (Nature Communications, 2020).
# Values joined by “and” are separate entries in the source; they are usually repeats but may differ in a detail not shown here. Equal entries are not always repeated. Where two headings read alike, the source gives them in different places.
# Legend:
# [1] = tested on: PfCRT; experiment: Potential co-substrates tested for influx of VF-6 via PfCRT into the oocyte; assay type: cell-based, Plasmodium falciparum; parameters: key: X: Compounds that have been tested as potential co-substrates but are not required for influx of VF-6 via PfCRT into the oocyte
# [2] = tested on: PfCRT; experiment: Test of solutes as potential co-substrates for influx of VF-6 via PfCRT into the oocyte; assay type: cell-based, Plasmodium falciparum; parameters: key: X: Compounds that have been tested as potential co-substrates but are not required for influx of VF-6 via PfCRT into the oocyte; settings: X = tested
# [3] = tested on: non-expressing oocytes; experiment: cells; assay type: cell-based, Xenopus laevis; settings: Xenopus laevis, Oocyte
# Outline: (§1)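 Using pH 5.5 ND96 at 27.5 °C, uptake is followed for 1.5 h, stopped with ice-cold buffer, and quantified as accumulated radioactivity per oocyte after SDS lysis.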
# [4] = molecular target: T1, PfNT1 (Plasmodium falciparum, UniProt Q8IDM6); experiment: cell-based; assay type: cell-based; settings: […]
# T1 construct: expressed in transfected cells; host or cells: Xenopus laevis oocytes (stage V-VI), cRNA-injected
# Outline: (§2)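 Oocytes (ten per treatment, ≥4 independent frogs/days) were preloaded by injecting VF-6 in 25 nL ND96 at pH 5.0, 5.5, 6.0 or 7.0, or Na^+-free choline buffer, then uptake run 1.5 h, 27.5 °C, ND96 pH 5.5 by default. Internal concentrations assumed ~400 nL oocyte volume.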
# [5] = molecular target: T2, PfCRT^Ecu1110 (Plasmodium falciparum, UniProt Q9N623, A220S/I356L/K76T/N326D); experiment: cell-based; assay type: cell-based; settings: […]
# Outline: as §2
# [6] = molecular target: T3, PfCRT^3D7 (Plasmodium falciparum, UniProt Q8IBZ9); experiment: cell-based; assay type: cell-based
# Outline: as §2
# [7] = molecular target: T4, PfCRT^Dd2 (Plasmodium falciparum, UniProt Q9N623, A220S/I356T/K76T/M74I/N326S/N75E/Q271E/R371I); experiment: cell-based; assay type: cell-based; settings: […]; for activity at 45000 µM: [test solute]i = 45 mM (30 mM for some solutes due to solubility)
# Outline: as §2
# [8] = tested on: non-expressing oocytes; assay type: cell-based, Xenopus laevis
# Outline: as §2
# [9] = molecular target: T3, PfCRT^3D7; experiment: cell-based; assay type: cell-based; remark: listed apart in the source
# Outline: as §1
# [10] = molecular target: T2, PfCRT^Ecu1110; experiment: [3H]CQ uptake into Xenopus oocytes, cis-inhibition by unlabelled solute; assay type: cell-based
# Outline: as §1
# [11] = molecular target: T4, PfCRT^Dd2; experiment: as above; assay type: cell-based
# Outline: as §1
# [12] = read-out: Uptake of [3H]CQ (% PfCRTDd2 control), cis-inhibition, non-expressing oocytes, SEM
# [13] = read-out: Uptake of [3H]CQ (% non-expressing oocyte control), cis-inhibition
# [14] = read-out: Uptake of [3H]CQ (% PfCRTDd2 control), trans-stimulation, PfNT1, SEM
# [15] = read-out: Uptake of [3H]CQ (% PfNT1 control), trans-stimulation
# [16] = read-out: PfCRT-mediated [3H]CQ transport, trans-stimulation (% PfCRT3D7 control)
# [17] = read-out: Uptake of [3H]CQ (% PfCRT3D7 control), trans-stimulation
# [18] = read-out: Uptake of [3H]CQ (% PfCRTDd2 control), trans-stimulation, PfCRT3D7, SEM
# [19] = read-out: Uptake of [3H]CQ (% PfCRT3D7 control), cis-inhibition
# [20] = read-out: Uptake of [3H]CQ (% PfCRTDd2 control), cis-inhibition, PfCRT3D7, SEM
# [21] = read-out: PfCRT-mediated [3H]CQ transport, cis-inhibition (% PfCRTEcu1110 control)
# [22] = read-out: Uptake of [3H]CQ (% PfCRTDd2 control), cis-inhibition, PfCRTEcu1110, SEM
# [23] = read-out: Uptake of [3H]CQ (% PfCRTEcu1110 control), cis-inhibition
# [24] = read-out: [3H]CQ transport (% PfCRTEcu1110 control), cis-inhibition, PfCRTEcu1110, SEM
# [25] = read-out: PfCRT-mediated [3H]CQ transport, cis-inhibition (% PfCRTDd2 control)
# [26] = read-out: Uptake of [3H]CQ (% PfCRTDd2 control), cis-inhibition, PfCRTDd2, SEM
# T3 sequence (Q8IBZ9 59-398): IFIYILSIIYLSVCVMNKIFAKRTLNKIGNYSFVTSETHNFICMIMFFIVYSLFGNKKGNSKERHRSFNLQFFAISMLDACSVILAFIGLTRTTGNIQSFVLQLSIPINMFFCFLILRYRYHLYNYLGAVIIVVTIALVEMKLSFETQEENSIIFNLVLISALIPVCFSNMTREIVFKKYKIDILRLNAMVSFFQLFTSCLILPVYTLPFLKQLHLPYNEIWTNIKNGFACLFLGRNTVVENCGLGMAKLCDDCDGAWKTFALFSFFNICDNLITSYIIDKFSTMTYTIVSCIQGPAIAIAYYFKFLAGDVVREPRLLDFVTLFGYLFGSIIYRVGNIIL
# T2 sequence (Q9N623 whole entry A220S/I356L/K76T/N326D): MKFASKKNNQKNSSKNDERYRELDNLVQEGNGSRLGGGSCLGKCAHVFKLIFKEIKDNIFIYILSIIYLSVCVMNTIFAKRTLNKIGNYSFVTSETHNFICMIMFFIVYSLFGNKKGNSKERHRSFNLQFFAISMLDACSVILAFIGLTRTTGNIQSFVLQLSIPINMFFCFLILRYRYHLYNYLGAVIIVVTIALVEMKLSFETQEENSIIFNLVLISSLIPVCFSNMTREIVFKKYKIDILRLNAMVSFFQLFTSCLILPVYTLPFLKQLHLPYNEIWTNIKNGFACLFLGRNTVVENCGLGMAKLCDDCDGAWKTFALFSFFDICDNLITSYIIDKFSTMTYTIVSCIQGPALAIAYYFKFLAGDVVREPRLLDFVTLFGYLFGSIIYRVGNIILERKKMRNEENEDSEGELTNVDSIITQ
# T4 sequence (Q9N623 whole entry A220S/I356T/K76T/M74I/N326S/N75E/Q271E/R371I): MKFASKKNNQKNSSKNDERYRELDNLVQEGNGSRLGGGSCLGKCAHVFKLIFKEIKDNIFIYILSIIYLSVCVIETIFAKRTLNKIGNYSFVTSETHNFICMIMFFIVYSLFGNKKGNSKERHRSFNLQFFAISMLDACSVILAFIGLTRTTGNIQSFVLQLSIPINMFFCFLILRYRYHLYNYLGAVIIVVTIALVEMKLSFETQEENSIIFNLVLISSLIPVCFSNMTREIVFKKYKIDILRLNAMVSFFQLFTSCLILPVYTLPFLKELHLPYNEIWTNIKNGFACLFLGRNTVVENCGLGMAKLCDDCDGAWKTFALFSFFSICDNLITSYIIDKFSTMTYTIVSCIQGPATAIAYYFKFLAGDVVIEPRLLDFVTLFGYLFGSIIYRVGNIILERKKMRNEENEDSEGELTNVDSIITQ
# T1 sequence (Q8IDM6 whole entry): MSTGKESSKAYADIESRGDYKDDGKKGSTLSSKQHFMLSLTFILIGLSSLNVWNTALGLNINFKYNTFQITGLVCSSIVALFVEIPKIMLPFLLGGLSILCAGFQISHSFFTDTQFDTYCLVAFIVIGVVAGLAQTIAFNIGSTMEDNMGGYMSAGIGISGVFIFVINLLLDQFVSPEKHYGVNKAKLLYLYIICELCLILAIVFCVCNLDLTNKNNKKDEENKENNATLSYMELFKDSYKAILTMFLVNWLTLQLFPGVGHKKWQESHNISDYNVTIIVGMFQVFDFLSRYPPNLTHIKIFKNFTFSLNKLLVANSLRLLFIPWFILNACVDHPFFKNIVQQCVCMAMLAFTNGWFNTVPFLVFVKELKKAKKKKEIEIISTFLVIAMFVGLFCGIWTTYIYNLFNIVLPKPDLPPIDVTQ
structure (smiles),measurement,setting,value
N[C@@H](Cc1ccc(O)cc1)C(=O)O [L-tyrosine],Tested as potential co-substrate but not required for influx of VF-6 via PfCRT into the oocyte,[1],X
same,Tested as potential co-substrate but not required for influx of VF-6 via PfCRT into the oocyte,[2],X
same,inhibition at 500 µM,[3]; [12],2.5 ± 0.03%
same,inhibition at 1000 µM,[3]; [12],4.2 ± 0.03%
same,inhibition at 2000 µM,[3]; [12],2.9 ± 0.04%
same,inhibition at 500 µM,[3]; [13],96 ± 4.2%
same,inhibition at 1000 µM,[3]; [13],99 ± 5.3%
same,inhibition at 2000 µM,[3]; [13],101 ± 3.9%
same,activity at 5000 µM,[4]; [14],2.2 ± 0.02%
same,activity at 45000 µM,[4]; [14],2.2 ± 0.02%
same,activity at 5000 µM,[4]; [15],100 ± 3.7%
same,activity at 45000 µM,[4]; [15],99 ± 2.2%
same,activity at 5000 µM,"[5]; pH 5.5, read-out: PfCRT-mediated [3H]CQ transport, trans-stimulation (% PfCRTEcu1110 control), [test solute]i = 5 mM (intracellular), PfCRTEcu1110 oocytes, normalised to oocyte type control",97 ± 1.8%
same,activity at 5000 µM,"[5]; pH 5.5, read-out: Uptake of [3H]CQ (% PfCRTEcu1110 control), trans-stimulation, PfCRTEcu1110 oocytes, [test solute]i = 5 mM, total [3H]CQ transport, normalised to the oocyte type control",99 ± 2.6%
same,activity at 45000 µM,"[5]; pH 5.5, read-out: Uptake of [3H]CQ (% PfCRTEcu1110 control), trans-stimulation, PfCRTEcu1110 oocytes, [test solute]i = 45 mM (30 mM for some solutes due to solubility), total [3H]CQ transport, normalised to the oocyte type control",100 ± 3.1%
same,activity at 5000 µM,"[5]; read-out: Uptake of [3H]CQ (% PfCRTDd2 control), trans-stimulation, PfCRTEcu1110, total [3H]CQ transport, [test solute]i = 5 mM (intracellular), mean ± SEM, SEM",35 ± 2.1%
same,activity at 45000 µM,"[5]; read-out: Uptake of [3H]CQ (% PfCRTDd2 control), trans-stimulation, PfCRTEcu1110, total [3H]CQ transport, [test solute]i = 45 mM (intracellular; 30 mM for some solutes due to solubility), mean ± SEM, SEM",36 ± 1.8%
same,"[3H]CQ transport (% PfCRT3D7 control), trans-stimulation, PfCRT3D7",[6]; SEM,0.3 ± 0.04 % PfCRT3D7 control
same,activity at 5000 µM,[6]; [16],97 ± 3.4%
same,activity at 45000 µM,[6]; [16],98 ± 2.2%
same,activity at 5000 µM,[6]; [17],99 ± 2.2%
same,activity at 45000 µM,[6]; [17],100 ± 2.4%
same,activity at 5000 µM,[6]; [18],3.3 ± 0.04%
same,activity at 45000 µM,[6]; [18],3.3 ± 0.01%
same,activity at 5000 µM,"[7]; pH 5.5, read-out: PfCRT-mediated [3H]CQ transport, trans-stimulation (% PfCRTDd2 control), [test solute]i = 5 mM (intracellular), PfCRTDd2 oocytes, normalised to oocyte type control",99 ± 2.6%
same,activity at 5000 µM,"[7]; pH 5.5, read-out: Uptake of [3H]CQ (% PfCRTDd2 control), trans-stimulation, PfCRTDd2, total [3H]CQ transport, [test solute]i = 5 mM (intracellular), mean ± SEM, SEM",101 ± 3.3%
same,activity at 5000 µM,"[7]; pH 5.5, read-out: Uptake of [3H]CQ (% PfCRTDd2 control), trans-stimulation, PfCRTDd2 oocytes, [test solute]i = 5 mM, total [3H]CQ transport, normalised to the oocyte type control",101 ± 3.3%
same,activity at 45000 µM,"[7]; pH 5.5, read-out: Uptake of [3H]CQ (% PfCRTDd2 control), trans-stimulation, PfCRTDd2 oocytes, total [3H]CQ transport, normalised to the oocyte type control",96 ± 2.4%
same,activity at 5000 µM,"[7]; pH 5.5, read-out: [3H]CQ transport (% PfCRTDd2 control), trans-stimulation, PfCRTDd2, trans-stimulation, [test solute]i = 5 mM (injected), PfCRT-mediated component (background subtracted), mean ± SEM, SEM",99 ± 2.6%
same,activity at 45000 µM,"[7]; pH 5.5, read-out: [3H]CQ transport (% PfCRTDd2 control), trans-stimulation, PfCRTDd2, trans-stimulation, PfCRT-mediated component (background subtracted), mean ± SEM, SEM",94 ± 3.3%
same,"Uptake of [3H]CQ (% non-expressing oocyte control), trans-stimulation",[8],99 ± 3.3 % non-expressing oocyte control and 98 ± 4.2 % non-expressing oocyte control
same,"Uptake of [3H]CQ (% PfCRTDd2 control), trans-stimulation, non-expressing oocytes",[8]; SEM,2.4 ± 0.01 % PfCRTDd2 control and 2.5 ± 0.01 % PfCRTDd2 control
same,inhibition at 500 µM,[9]; [19],99 ± 4.7%
same,inhibition at 1000 µM,[9]; [19],101 ± 3.8%
same,inhibition at 2000 µM,[9]; [19],99 ± 4.7%
same,inhibition at 500 µM,[9]; [20],2.8 ± 0.07%
same,inhibition at 1000 µM,[9]; [20],2.5 ± 0.04%
same,inhibition at 2000 µM,[9]; [20],3.1 ± 0.03%
same,inhibition at 500 µM,[10]; [21],96 ± 5.3%
same,inhibition at 2000 µM,[10]; [21],95 ± 3.4%
same,inhibition at 500 µM,[10]; [22],32 ± 1%
same,inhibition at 1000 µM,[10]; [22],32 ± 1.1%
same,inhibition at 2000 µM,[10]; [22],32 ± 1.7%
same,inhibition at 500 µM,[10]; [23],99 ± 1.4%
same,inhibition at 1000 µM,[10]; [23],101 ± 1.4%
same,inhibition at 2000 µM,[10]; [23],97 ± 1.5%
same,inhibition at 500 µM,[10]; [24],29 ± 0.7%
same,inhibition at 1000 µM,[10]; [24],29 ± 1.5%
same,inhibition at 2000 µM,[10]; [24],29 ± 0.5%
same,inhibition at 500 µM,[11]; [25],94 ± 4.6%
same,inhibition at 2000 µM,[11]; [25],97 ± 3.5%
same,inhibition at 500 µM,[11]; [26],96 ± 3.2%
same,inhibition at 1000 µM,[11]; [26],98 ± 2.3%
same,inhibition at 2000 µM,[11]; [26],99 ± 1.4%
